# In patent publication US4365989A, “2-Thiocyanomethylthio-4,4-dialkyl-5-substituted-thiazoline fungicides” (Chevron Research Company, priority 1982, dated 1982):
# Columns and labels:
# Botrytis Cineria = assay: Mycelial inhibition, Botrytis; format: cell-based; conditions: 24 hours, relative to standard DIFOLATAN
# Experimental: (§1) A number of the compounds of the present invention were evaluated for in-vitro fungicidal effectiveness by means of a mycelial inhibition test. This test is designed to measure the fungitoxic activity of fungicidal chemicals in terms of their degree of inhibition of mycelium growth. Each compound to be tested was dissolved in acetone to 500 ppm concentration. Paper strips were infused with the particular mycelium growth by covering the paper with a potato dextrose broth culture of mycelial suspension. The papers were then placed on potato dextrose agar plates and sprayed by means of a microsprayer with the fungicidal solution. The treated paper strips were incubated at 25° C. and the data is taken after 24 hours. Fungicidal activities are measured by a zone of inhibited mycelial growth from the center of the paper strip. The effectiveness of the compounds tested for fungicidal activity is reported in Table IIa for those compounds which were effective in inhibiting mycelial growth. The activity is reported in terms of [formula]
# [1] = tested on: Mustard (Brassica arvensis); assay: Post-emergent herbicidal test, Mustard; format: in vivo; conditions: 504 h, post-emergence, 33 micrograms/cm^2, 3 weeks
# Lemna minor = assay: Aquatic weeds control, Lemna; format: in vivo; conditions: 7 to 10 days, read-out: Algicidal Activity % Control Lemna
# Experimental: Representative compounds of the invention were tested as aquatic herbicides and algicides by the following method. The weed test species were Lemna minor, Elodea canadensis and the algae used was Spirulina maxima.
# An acetone solution of the test compound and a small amount of an alkylarylpolyoxyethylene glycol-containing surfactant was prepared. This solution was mixed with a nutrient solution in quantity sufficient to give a concentration of 2 ppm. Eight oz. plastic cups were filled with 150 ml of this solution. A sample of the test, Lemna and Elodea, was added together to each cup. Forty ml of Spirulina culture with the 2 ppm treatment was placed in 11/2 oz plastic cups (#4 glass vials used after June 9, 1980). The containers were then placed in an illuminated environment maintained at a temperature of about 20° C. for incubation. The containers were observed periodically for growth (as compared to an untreated check). The effectiveness of the test compound was determined based on a final observation of growth after 7 to 10 days. The results of the test on a 0-to-100 basis--0 indicating no effectiveness and 100 indicating complete effectiveness--are reported in Table IV.
# Septoria apii = format: in vivo; conditions: 250 ppm; celery (Utah) plants
# Plasmopara viticola = assay: Grape Downy Mildew control, detached grape leaves; format: in vivo; conditions: in Vitis vinifera, Vitis vinifera Emperor detached leaves, read-out: % Control Grape D.M.
# Experimental: The compounds of the invention were tested for the control of the grape downy mildew organism Plasmopara viticola. Detached leaves, between 70 and 85 mm in diameter, of 7-week old Vitis vinifera cultivar Emperor grape seedlings were used as hosts. The leaves were sprayed with a 250 ppm solution of the test compound in acetone. The sprayed leaves were dried, inoculated with a spore suspension of the organism, placed in a humid environmental chamber and incubated at 66° to 68° F. and about 100% relative humidity. After incubation for two days, the plants were then held in a greenhouse seven to nine days; then the amount of disease control was determined. The percent disease control provided by a given gest compound was based on the percent disease reduction relative to untreated check plants.
# [2] = tested on: Lambsquarter (Chenopodium album); assay: Post-emergent herbicidal test, Lambsquarter; format: in vivo; conditions: 504 h, post-emergence, 33 micrograms/cm^2, 3 weeks, read-out: Herbicidal Activity Post-Emergence % Control L'Qtr.
# Aspergillus Niger = assay: Mycelial inhibition, Aspergillus; format: cell-based; conditions: 24 hours, relative to standard DIFOLATAN, read-out: Mycelial inhibition, % Standard, Asper.
# Experimental: as §1
# Piricularia oryzae = format: in vivo; conditions: 625 ppm; rice seedlings Calrose M-9
# Pythium Ultimum = assay: Mycelial inhibition, Pythium; format: cell-based; conditions: Globisporangium ultimum, 24 hours, relative to standard DIFOLATAN
# Experimental: as §1
Structure (SMILES),inhibition at 500 ppm (Botrytis Cineria) [%],pest or weed control at 33 µg/cm2 [1] [%],activity at 2 ppm (Lemna minor) [%],% Control Cel. L. Bl. (Septoria apii) [%],pest or weed control at 250 ppm (Plasmopara viticola) [%],pest or weed control at 33 µg/cm2 [2] [%],inhibition at 500 ppm (Aspergillus Niger) [%],% Control Rice Blast (Piricularia oryzae) [%],inhibition at 500 ppm (Pythium Ultimum) [%]
"CC1(C)N=C(SCSC#N)SC1=CSc1ccc(Cl)cc1 [Compound 1, 2-thiocyanomethylthio-4,4-dimethyl-5-(4-chlorophenylthio)methylenethiazoline]",0,0,0,70,100,0,0,,
"CC1(C)N=C(SCSC#N)SC1=C(Cl)Cl [Compound 2, 2-thiocyanomethylthio-4,4-dimethyl-5-dichloromethylenethiazoline]",32,63,50,35,88,40,107,,
"CCC1(CC)N=C(SCSC#N)SC1=CBr [Compound 5, 2-thiocyanomethylthio-4,4-diethyl-5-bromo-methylenethiazoline]",0,35,0,96,100,33,50,90,0
"C=C1SC(SCSC#N)=NC1(CC)CC [Compound 6, 2-thiocyanomethylthio-4,4-diethyl-5-methylenethiazoline]",30,35,0,0,0,55,77,,31
"C=C1SC(SCSC#N)=NC1(C)C [Compound 7, 2-Thiocyanomethylthio-4,4-dimethyl-5-methylenethiazoline]",82,50,90,,50,55,32,,55
C=C1SC(SCSC#N)=NC12CCCCC2 [Compound 8],26,25,60,,100,40,77,,0
